According to publication PMC12752606, “METTL10‐Mediated PIAS3 Methylation Links Purine Metabolism to Gastric Cancer Progression” (Advanced Science, 2025):

Tests used:
ATK orthotopic tumors = test: Orthotopic ATK cell gastric cancer allograft model with flow cytometry of tumor-infiltrating cells; type: in vivo, C57BL/6 mice
Procedure: Orthotopic gastric cancer models were established by surgically implanting 1 × 10⁶ METTL10‐overexpressing or vector control ATK cells into the gastric subserosal layer of C57BL/6 mice under aseptic conditions. Tumor tissues were harvested 20 days post‐implantation for subsequent analyses. In a separate cohort, mice bearing orthotopic tumors (1 × 10⁶ cells implanted) received subcutaneous administration of LZQ‐02‐023‐01 at a dose of 40 mg/kg/day, starting 7 days after tumor implantation. The treatment continued daily for 14 consecutive days. Tumor burden and therapeutic response were assessed at the end of the treatment period by excision and analysis of gastric tumors.
Tumor tissues were finely minced into approximately 1 mm^3 pieces and enzymatically digested in Hank's Balanced Salt Solution (HBSS) containing type IV collagenase (2357210, Gibco) at 37 °C for 1 h. The resulting cell suspensions were gently triturated and passed through an 80 µm cell strainer (22131209, Biosharp) to remove debris. Red blood cells were lysed using ACK lysis buffer (R1010, Solarbio) to yield a single‐cell suspension. Cells were subsequently stained with a cocktail of fluorochrome‐conjugated antibodies (1:200 dilution; details listed in Table S6, Supporting Information) and a fixable viability dye (1:200, 2365395, Invitrogen) for 30 min at 4 °C in the dark. After washing, the stained cells were analyzed using a Sony ID7000 spectral flow cytometer (Sony Biotechnology).
Paraffin sections were initially placed in an oven at 65 °C for 30 min to melt the paraffin. The slides were then immersed in two consecutive xylene baths for 10 min each to dewax the tissue, followed by hydration through a series of graded ethanol solutions. The sections were stained with hematoxylin for 10 min. After differentiation with 1% hydrochloric acid alcohol, the sections were blued with lithium carbonate and counterstained with eosin for 3 min. The slides were then dehydrated in graded ethanol and mounted with neutral resin. All pathological results were performed in a blinded manner by experienced gastrointestinal pathologists. For IHC staining, sections were processed in accordance with the manufacturer's protocol (MXB Biotechnologies). Briefly, antigen retrieval was conducted at 37 °C for 30 min, followed by blocking at room temperature for 10 min. The sections were subsequently incubated with the appropriate primary antibody overnight at 4 °C. The following day, biotin‐conjugated secondary antibodies were applied and incubated for 1 h, followed by streptavidin‐peroxidase incubation for 10 min. Diaminobenzidine (DAB) was employed as the chromogen for visualization, and hematoxylin was used for counterstaining. Imaging was performed using the Olympus VS200 microscope.

MKN45 xenografts = test: MKN45 subcutaneous xenograft model; type: in vivo, BALB/c nude mice; settings: 20 or 40 mg/kg i.p. once daily for 2 weeks
Procedure: For the subcutaneous tumor model, 5 × 10⁶ MKN45 cells suspended in 100 µL of sterile PBS were injected subcutaneously into the flanks of BALB/c nude mice. When tumor volumes reached approximately 50 mm^3, mice were randomized into three groups (Vehicle control, LZQ‐02‐023‐01 at 20 mg/kg or 40 mg/kg, n = 10 per group). All treatments were administered via intraperitoneal injection once daily for 14 consecutive days. Tumor volumes were measured every 2 days using calipers and calculated using the formula: volume = [length × (width[2])]/2. Mice were sacrificed on day 24 for endpoint analyses. For genetically engineered mouse models (GEMMs), 25‐week‐old K19‐C2mE mice were randomized into Vehicle control (n = 8) and LZQ‐02‐023‐01 treatment (40 mg/kg, n = 8) groups. Both groups received daily intraperitoneal injections for 28 consecutive days. Similarly, 8‐week‐old Cldn18‐AT mice were induced with tamoxifen (100 mg/kg, T5648, Sigma) and, 2 weeks post‐induction, randomized into Vehicle (n = 6) and LZQ‐02‐023‐01 (40 mg/kg, n = 6) treatment groups. Treatments were administered daily via intraperitoneal injection for 28 days.
Paraffin sections were initially placed in an oven at 65 °C for 30 min to melt the paraffin. The slides were then immersed in two consecutive xylene baths for 10 min each to dewax the tissue, followed by hydration through a series of graded ethanol solutions. […]

MKN45 and AGS cells = test: Cell proliferation, CCK-8 assay; type: cell-based; settings: 10 and 20 µM
Procedure: Cell proliferation was assessed using Cell Counting Kit‐8 (CCK‐8; K1018, APExBIO). Briefly, 1000 cells per well were seeded into 96‐well plates, and proliferation was measured at 450 nm on days 0, 1, 3, 5, and 7 using the CCK‐8 assay using a multifunctional microplate reader.

[1] = system: PIAS3-K442 methylation in MKN45 and AGS cells; test: Immunoblotting of PIAS3-K442 methylation in GC cell lines; type: cell-based; settings: 20 µM or higher, 24-hour treatment
Procedure: (§1) Protein extraction from tissues or cells was performed by lysis buffer (20 mM Tris‐HCl (pH 7.5), 150 mM NaCl, 1 mM EDTA, 1 mM EGTA, 2.5 mM sodium pyrophosphate, 1 mM β‐glycerolphosphate, 1% Triton X‐100) supplemented with 1% phenylmethylsulfonyl fluoride (PMSF; Solarbio, P0100) and protease inhibitor cocktail (Apexbio, K1007) and lysed at 4 °C for 60 min, followed by centrifugation at 12000 g for 15 min at 4 °C. For Immunoblotting, the protein concentration was determined using the Pierce BCA Protein Assay Kit (Thermo Fisher Scientific, A55864). The protein samples were denatured by boiling in SDS‐PAGE loading buffer. For immunoprecipitation, antibodies were incubated with Dynabeads Protein G (Thermo, 10004D) at 4 °C for 4 h. The supernatant was then incubated with magnetic beads conjugated with antibodies or anti‐FLAG‐M2 magnetic beads (Sigma–Aldrich, M8823) at 4 °C overnight. Following incubation, the magnetic beads were washed three times with lysis buffer and then boiled in SDS‐PAGE loading buffer. The proteins were separated by sodium dodecyl sulfate polyacrylamide gel electrophoresis (SDS‐PAGE) with One‐Step PAGE Gel Fast Preparation Kit (Vazyme), and then transferred to the PVDF Membrane (Bio‐Rad). After blocking with a protein‐free rapid blocking buffer (Epizyme, PS108P) for 15 min, the membranes were incubated with primary antibodies at 4 °C overnight. […]

[2] = system: MITF ubiquitination in MKN45 and AGS cells; test: Endogenous MITF ubiquitination and degradation in GC cells (IP and immunoblotting); type: cell-based; settings: 20 µM, MG132 5 µM pretreatment
Procedure: as §1, with “buffer.” for “buffer. The proteins were separated by sodium dodecyl sulfate polyacrylamide gel electrophoresis (SDS‐PAGE) with One‐Step PAGE Gel Fast Preparation Kit (Vazyme), and then transferred to the PVDF Membrane (Bio‐Rad). After blocking with a protein‐free rapid blocking buffer (Epizyme, PS108P) for 15 min, the membranes were incubated with primary antibodies at 4 °C overnight.”
Plasmids were transfected into HEK293T cells for 24 h or into gastric cells for 36 h. […] After lysing the cells with lysis buffer, the samples were subjected to immunoprecipitation and analyzed by immunoblotting.

[3] = 40 mg/kg/day for 14 days, flow cytometry

Cc1ccc(Nc2ncc3c(n2)N(C)C(=O)N(c2cccc(N)c2)C3)cn1 [LZQ-02-023-01, Three‐(3‐aminophenyl)‐1‐methyl‐7‐((6‐methylpyridin‐3‐yl)amino)‐3,4‐dihydropyrimido [4,5‐d] pyrimidin‐2 (1H)‐one]
Tumor burden (ATK orthotopic tumors; 40 mg/kg/day for 14 consecutive days, ATK orthotopic model, vs vehicle): significant reduction in tumor burden
Proliferative activity (Ki-67 expression) of tumors (ATK orthotopic tumors; 40 mg/kg/day for 14 days): reduced proliferative activity
Tumor-infiltrating B cells (ATK orthotopic tumors; [3]): modest decrease
Tumor-infiltrating T lymphocytes (CD4+ and CD8+) (ATK orthotopic tumors; [3]): moderate increase
Growth of xenografts derived from MKN45 cells (MKN45 xenografts): significant reduction
Ki-67 expression, PIAS3-K442 methylation and MITF in xenografts (MKN45 xenografts): significantly decreased
GC cell proliferation (CCK-8) (MKN45 and AGS cells): significantly inhibited
Methylation of PIAS3-K442 in GC cell lines [1]: decreased
PIAS3-mediated ubiquitination and degradation of MITF, GC cells [2]: significantly promoted
